{"source": "paper PMC4006692", "about": "(Journal of biomolecular screening, 2013)", "key": {"HIV-1 Nef dimerization": {"target": "HIV-1 Nef dimerization (Human immunodeficiency virus type 1 group M subtype B, UniProt P03407)", "sequence (P03407 2-210)": "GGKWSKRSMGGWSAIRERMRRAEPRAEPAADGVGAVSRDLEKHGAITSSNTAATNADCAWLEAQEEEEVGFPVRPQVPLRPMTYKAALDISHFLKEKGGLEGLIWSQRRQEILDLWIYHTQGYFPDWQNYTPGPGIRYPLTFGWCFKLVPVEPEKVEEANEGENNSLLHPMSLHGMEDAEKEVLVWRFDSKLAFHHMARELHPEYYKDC", "conditions": "up to a final DMSO concentration of 2.5%"}, "293T cells": {"tested_on": "293T cells", "conditions": "final DMSO concentration"}}, "data": [{"smiles": "C[S+](C)[O-]", "note": "[DMSO]", "values": [{"measurement": "BiFC/mRFP ratio of WT2A", "setting": "HIV-1 Nef dimerization", "result": "essentially unchanged"}, {"measurement": "IC50 of cell loss (cell density)", "setting": "293T cells", "result": "approximately 1%"}, {"measurement": "concentration causing cell loss", "setting": "293T cells", "result": "above 0.6%"}]}]}
